Measurements reported in patent US20250140406A1, “CLASSIFYING TUMORS AND PREDICTING RESPONSIVENESS” (Oncocyte Corporation, priority 2022, published 2025).

What was measured:
[1] = system: cancer cell lines classified IM, MSL, M; test: PRISM screen compound sensitivity correlated with IM, MSL and M subtype of cell lines (101 gene signature); format: cell-based; conditions: for IM Corr test: correlation of PRISM compound sensitivity with IM subtype correlation; for M Corr test: correlation of PRISM compound sensitivity with M subtype correlation; for MSL Corr test: correlation of PRISM compound sensitivity with MSL subtype correlation; for TNBCType train: 101 gene signature
[2] = system: cancer cell lines, DetermaIO classes; test: Association of PRISM compound sensitivity with DetermaIO (DTIO) cell line classes; format: cell-based
[3] = subtype (IM, MSL or M) assigned to the compound by negative correlation of PRISM sensitivity with subtype, training cell set (371 cell lines)
[4] = correlation of PRISM compound sensitivity with DTIO (DetermaIO), test cell set (188 cell lines)
[5] = correlation of PRISM compound sensitivity with DTIO (DetermaIO), training cell set (371 cell lines)
[6] = correlation of PRISM compound sensitivity with DTIO, test cell set
[7] = correlation of PRISM compound sensitivity with DTIO, training cell set
[8] = association of compound sensitivity with DetermaIO classes, test data set
[9] = association of compound sensitivity with DetermaIO classes, training data set

**Q.** What does the source list for `c1ccc2sc(N3CCN(Cc4ccc5c(c4)OCO5)CC3)nc2c1`?
**A.** IM Corr test ([1]; test cell set (188 cell lines)): 0.03417; M Corr test ([1]; test cell set (188 cell lines)): −0.06017; MSL Corr test ([1]; test cell set (188 cell lines)): −0.05087; TNBCType train [1, 3]: MSL; DTIO Corr test [2, 4]: 0.0115; DTIO Corr train [2, 5]: 0.00776

**Q.** For `CCCCC/C=C\C=C\CCCCCCCCC(=O)O`, which “IM Corr test” value ([1]; test cell set) is on record?
**A.** −0.1138

**Q.** What about the “M Corr test” value ([1]; test cell set) of the same molecule?
**A.** 0.05243

**Q.** What about the “MSL Corr test” value ([1]; test cell set) of the same molecule?
**A.** 0.00293

**Q.** What about the “DTIO Corr test” value [2, 6] of the same molecule?
**A.** −0.07628

**Q.** And the “DTIO Corr train” value [2, 7]?
**A.** −0.1009

**Q.** What does the source list for `CN(N=O)C(=O)N[C@H]1C(O)O[C@H](CO)[C@@H](O)[C@@H]1O` (mixture of isomers) [streptozotocin]?
**A.** IM Corr test ([1]; test cell set): −0.07058; M Corr test ([1]; test cell set): 0.07616; MSL Corr test ([1]; test cell set): −0.07788; TNBCType train ([1]; subtype (IM, MSL or M) with which PRISM compound sensitivity is negatively correlated, training cell set): MSL; DTIO Corr test [2, 6]: −0.06131; DTIO Corr train [2, 7]: 0.03601

**Q.** `CCNCCCNCCCCNCCCNCC` [1,12-Besm] was tested. Which “IM Corr test” value ([1]; test cell set (188 cell lines)) did it give?
**A.** −0.00575

**Q.** What about the “M Corr test” value ([1]; test cell set (188 cell lines)) of the same molecule?
**A.** −0.0837

**Q.** And the “MSL Corr test” value ([1]; test cell set (188 cell lines))?
**A.** −0.1322

**Q.** And the “DTIO Corr test” value [2, 6]?
**A.** 0.02016

**Q.** And the “DTIO Corr train” value [2, 7]?
**A.** 0.07515

**Q.** What does the source list for `C[C@@]1(O)[C@H](O)[C@@H](CO)O[C@H]1n1cnc2c(NC3CCCC3)nc(Cl)nc21` [2′-MeCCPA]?
**A.** IM Corr test ([1]; test cell set (188 cell lines)): −0.06271; M Corr test ([1]; test cell set (188 cell lines)): 0.03452; MSL Corr test ([1]; test cell set (188 cell lines)): −0.04413; TNBCType train [1, 3]: MSL; DTIO Corr test [2, 4]: −0.0753; DTIO Corr train [2, 5]: −0.01341

**Q.** What does the source list for `Nc1nccc2c1ncn2C1C=C(CO)C(O)C1O` (centres unmarked) [3-deazaneplanocin-A]?
**A.** IM Corr test ([1]; test cell set (188 cell lines)): −0.02722; M Corr test ([1]; test cell set (188 cell lines)): 0.1507; MSL Corr test ([1]; test cell set (188 cell lines)): 0.09034; DTIO Corr test [2, 4]: −0.05245; DTIO Corr train [2, 5]: −0.1309

**Q.** Which “IM Corr test” value ([1]; test cell set (188 cell lines)) does the source give for `O=c1[nH]cnc2ccccc12` [4-HQN] here?
**A.** −0.06704

**Q.** What about the “M Corr test” value ([1]; test cell set (188 cell lines)) of the same molecule?
**A.** 0.04595

**Q.** And the “MSL Corr test” value ([1]; test cell set (188 cell lines))?
**A.** 0.1063

**Q.** What about the “DTIO Corr test” value [2, 4] of the same molecule?
**A.** 0.05447

**Q.** And the “DTIO Corr train” value [2, 5]?
**A.** −0.1475

**Q.** With `O=S(=O)(O)c1ccc(O)cc1` [4-phenolsulfonic-acid] as the molecule, how does the “IM Corr test” value ([1]; test cell set) read?
**A.** −0.06223

**Q.** What about the “M Corr test” value ([1]; test cell set) of the same molecule?
**A.** 0.02717

**Q.** What about the “MSL Corr test” value ([1]; test cell set) of the same molecule?
**A.** 0.006866

**Q.** And the “DTIO Corr test” value [2, 6]?
**A.** −0.03477

**Q.** What about the “DTIO Corr train” value [2, 7] of the same molecule?
**A.** −0.1569

**Q.** `O=C(O)c1ccc(N2C(=O)/C(=C\c3ccc(-c4ccc([N+](=O)[O-])cc4)o3)C=C2c2ccccc2)cc1` [4E1RCat] was tested. Which “IM Corr test” value ([1]; test cell set (188 cell lines)) did it give?
**A.** 0.05564

**Q.** And the “M Corr test” value ([1]; test cell set (188 cell lines))?
**A.** −0.08971

**Q.** What about the “MSL Corr test” value ([1]; test cell set (188 cell lines)) of the same molecule?
**A.** 0.01051

**Q.** What about the “DTIO Corr test” value [2, 4] of the same molecule?
**A.** 0.01627

**Q.** And the “DTIO Corr train” value [2, 5]?
**A.** 0.1551

**Q.** Which “DTIO Corr test” value [2, 8] does the source give for `COc1ccc(C2=N[C@@H](c3ccc(Cl)cc3)[C@@H](c3ccc(Cl)cc3)N2C(=O)N2CCNC(=O)C2)c(OC(C)C)c1` [A12230535] here?
**A.** 0.1503

**Q.** What about the “DTIO Corr train” value [2, 9] of the same molecule?
**A.** 0.1606

**Q.** How did the “DTIO Corr test” value [2, 8] turn out when `Cc1nccn1CC1CCc2c(c3ccccc3n2C)C1=O` (centres unmarked) [A19736161] was run?
**A.** −0.1124

**Q.** And the “DTIO Corr train” value [2, 9]?
**A.** −0.07634

**Q.** What does the source list for `COC(=O)N[C@@H](C)CNc1nccc(-c2cn(C(C)C)nc2-c2cc(Cl)cc(NS(C)(=O)=O)c2F)n1` [A56085258]?
**A.** DTIO Corr test [2, 8]: 0.1442; DTIO Corr train [2, 9]: 0.09535

**Q.** With `Cc1ccc(NC(=O)c2ccc(CN3CC[C@H](N(C)C)C3)c(C(F)(F)F)c2)cc1Nc1nccc(-c2cncnc2)n1` [A75975749] as the molecule, how does the “DTIO Corr test” value [2, 8] read?
**A.** 0.1658

**Q.** And the “DTIO Corr train” value [2, 9]?
**A.** 0.1191

**Q.** Which “DTIO Corr test” value [2, 8] does the source give for `O=C(c1cc(Cc2n[nH]c(=O)c3ccccc23)ccc1F)N1CCN(C(=O)C2CC2)CC1` [K02113016] here?
**A.** 0.06404

**Q.** What about the “DTIO Corr train” value [2, 9] of the same molecule?
**A.** 0.02661

**Q.** Which “DTIO Corr test” value [2, 8] does the source give for `Cc1cc(CN2CCN(c3c(Br)cnc4nc(-c5ccc(N6CCN(C)CC6)cc5)[nH]c34)CC2)no1` [K03289018] here?
**A.** −0.1396

**Q.** And the “DTIO Corr train” value [2, 9]?
**A.** −0.02552

**Q.** What does the source list for `Cc1ccc(NC(=O)c2cccc(C(C)(C)C#N)c2)cc1Nc1ccc2ncn(C)c(=O)c2c1` [K05804044]?
**A.** DTIO Corr test [2, 8]: 0.3247; DTIO Corr train [2, 9]: 0.1908

**Q.** With `CC(C)(C)c1nc(-c2cccc(NS(=O)(=O)c3c(F)cccc3F)c2F)c(-c2ccnc(N)n2)s1` [K09951645] as the molecule, how does the “DTIO Corr test” value [2, 8] read?
**A.** 0.1439

**Q.** What about the “DTIO Corr train” value [2, 9] of the same molecule?
**A.** 0.04313

**Q.** Which “DTIO Corr test” value [2, 8] does the source give for `Cc1cc(C2CCCCC2)n(O)c(=O)c1` [K13044802] here?
**A.** −0.06749

**Q.** What about the “DTIO Corr train” value [2, 9] of the same molecule?
**A.** −0.1574

**Q.** Which results are given for `O=Nc1ccc(O)c2ncccc12` [K13169950]?
**A.** DTIO Corr test [2, 8]: −0.00012; DTIO Corr train [2, 9]: 0.09356

**Q.** Which “DTIO Corr test” value [2, 8] does the source give for `N=C(N)c1ccc(OCCCCCOc2ccc(C(=N)N)cc2)cc1` [K13183738] here?
**A.** 0.14

**Q.** And the “DTIO Corr train” value [2, 9]?
**A.** 0.2157

**Q.** `Cc1occc(=O)c1[O-].Cc1occc(=O)c1[O-].[O]=[V+2]` [K16180792] was tested. Which “DTIO Corr test” value [2, 8] did it give?
**A.** 0.09031

**Q.** And the “DTIO Corr train” value [2, 9]?
**A.** 0.1485

**Q.** `CS(=O)(=O)CCNCc1ccc(-c2ccc3ncnc(Nc4ccc(OCc5cccc(F)c5)c(Cl)c4)c3c2)o1` [K19687926] was tested. Which “DTIO Corr test” value [2, 8] did it give?
**A.** −0.0302

**Q.** And the “DTIO Corr train” value [2, 9]?
**A.** −0.08369

**Q.** Which results are given for `COc1cc2nc(N3CCCN(C)CC3)nc(NC3CCN(Cc4ccccc4)CC3)c2cc1OC` [K26818574]?
**A.** DTIO Corr test [2, 8]: 0.2463; DTIO Corr train [2, 9]: 0.08377

**Q.** How did the “DTIO Corr test” value [2, 8] turn out when `CNC(=O)c1ccccc1Sc1ccc2c(/C=C/c3ccccn3)n[nH]c2c1` [K29905972] was run?
**A.** 0.004812

**Q.** And the “DTIO Corr train” value [2, 9]?
**A.** 0.0816

**Q.** For `N#Cc1c(Oc2ccc(F)c(NC(=O)Cc3cccc(C(F)(F)F)c3)c2)ccc2nc(NC(=O)C3CC3)sc12` [K31866293], which “DTIO Corr test” value [2, 8] is on record?
**A.** 0.2089

**Q.** And the “DTIO Corr train” value [2, 9]?
**A.** 0.08489
